For data set [1], the target named is H1 ectodomain (Influenza A virus, UniProt C3W5S1). Nature of the data set: biochemical. The class given is binding, Influenza A virus A/California/04/2009 (H1N1).
For data set [2], the system named is H3N1 virus carrying H3 HA of A/Bilthoven/1761/76 (H3N2) in the H1N1pr8 background. The data set is classed as cell-based, Influenza A virus.
Data set [3] concerns the target H1 ectodomain of A/California/04/2009 (H1N1) (Influenza A virus, UniProt C3W5S1). The class given is binding, Influenza A virus A/California/04/2009 (H1N1).
For data set [4], the system named is H1N1pr8 (A/PR8/8/34/Mount Sinai). The data set is classed as cell-based, Influenza A virus.
In data set [5] the test system is H1N1pdm09 (A/Netherlands/602/2009).
Data set [6] has as its system H5N1 virus carrying H5 HA of A/duck/Hunan/795/2002 in the H1N1pr8 genetic background. Conditions: 16 h.
In data set [7] the test system is H1N1pdm09 (A/Netherlands/602/2009). The class given is cell-based, Influenza A virus.
Data set [8] in a line: in vitro. Conditions: HeLa R19 cells and MDCKI cells.
Data set [9] has as its target H1 HA (Influenza A virus, UniProt C3W5S1). The data set is classed as binding, Influenza A virus A/California/04/2009 (H1N1).

Several values for one entry are separate records, joined by “and”; a condition that tells them apart may be missing. Equal values may be shown once. Starred links: 1 amine or outer side, 2 acyl side, 3 side chain; linkers in the order of their positions; H or OH if unused. Positions of bridges follow the written chain, without caps; N, C: chain ends. Non-standard residues stand in square brackets, D forms with d. Residues, ends and D or L forms follow the SMILES beside them. Groups on a side chain read outwards from the residue. *: point of attachment. X1 = O=C([C@H](CCn1nnc2c1-c1ccccc1CN([*:3])c1ccccc1-2)N[*:1])[*:2]; 6FAM = O=C1OC2(c3ccc(O)cc3Oc3cc(O)ccc32)c2cc(C(=O)*)ccc21; AEEA = NCCOCCOCC(=O)O; Ahx = NCCCCCC(=O)O

The record followed here is paper PMC9486808 (ACS Chemical Biology, 2022).

What is called Kd is the free concentration of one partner at which half of the binding sites on the other are occupied at equilibrium, for simple one-to-one binding. Higher therefore signals lower affinity. A word on the IC50: it is the concentration that gives 50% inhibition. What is called CC50 is the concentration at which the toxic effect on the cells reaches its halfway point. Read a high CC50 as lower toxicity to the cells.

Sequence of H1 ectodomain of A/California/04/2009 (H1N1) (C3W5S1 entry or part of it, added parts left off): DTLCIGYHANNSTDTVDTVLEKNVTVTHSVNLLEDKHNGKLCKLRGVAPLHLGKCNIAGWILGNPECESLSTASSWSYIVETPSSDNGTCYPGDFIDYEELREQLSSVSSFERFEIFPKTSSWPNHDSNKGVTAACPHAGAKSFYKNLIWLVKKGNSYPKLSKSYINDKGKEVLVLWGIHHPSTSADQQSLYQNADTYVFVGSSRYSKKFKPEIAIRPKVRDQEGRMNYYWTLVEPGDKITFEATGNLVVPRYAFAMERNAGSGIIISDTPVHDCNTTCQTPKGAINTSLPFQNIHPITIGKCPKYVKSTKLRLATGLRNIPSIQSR
Sequence of H1 ectodomain (C3W5S1 entry or part of it, added parts left off): as above

Consider `CC(C)C[C@H](NC(=O)[C@@H]1CSCC(=O)N[C@@H](Cc2ccc(O)cc2)C(=O)N[C@@H](Cc2c[nH]c3ccccc23)C(=O)N[C@@H](Cc2c[nH]cn2)C(=O)N[C@@H](CCCCN)C(=O)N[C@@H](CC(N)=O)C(=O)N[C@@H](CCCCN)C(=O)N[C@@H](Cc2ccc(O)cc2)C(=O)N[C@@H](C(C)C)C(=O)N[C@@H](CC(C)C)C(=O)N[C@@H]([C@@H](C)O)C(=O)N[C@@H](Cc2ccc(O)cc2)C(=O)N[C@@H](CO)C(=O)N1)C(=O)N[C@@H](Cc1ccccc1)C(=O)N[C@@H](C)C(=O)N[C@@H](C)C(=O)NCCOCCOCC(=O)N[C@@H](CCn1nnc2c1-c1ccccc1CN(C(=O)CCCCCNC(=O)c1ccc3c(c1)C1(OC3=O)c3ccc(O)cc3Oc3cc(O)ccc31)c1ccccc1-2)C(=O)NCC(=O)N[C@@H](CC(=O)O)C(=O)N[C@@H](Cc1ccc(O)cc1)C(=O)N[C@@H](CCCCN)C(=O)N[C@@H](CC(=O)O)C(=O)N[C@@H](CC(=O)O)C(=O)N[C@@H](CC(=O)O)C(=O)N[C@@H](CC(=O)O)C(=O)N[C@@H](CCCCN)C(=O)NCC(N)=O` [L2FAM] ({CH2CO}-YWHKNKYVLTYSCLFAA[AEEA][X1]([Ahx-6FAM])GDYKDDDDKG-NH2; thioether N-13), for which, in data set [1], the Hillslope is 0.91 and 0.70. In the case of `CC(C)C[C@H](NC(=O)[C@@H]1CSCC(=O)N[C@@H](Cc2ccc(O)cc2)C(=O)N[C@@H](Cc2c[nH]c3ccccc23)C(=O)N[C@@H](Cc2c[nH]cn2)C(=O)N[C@@H](CCCCN)C(=O)N[C@@H](CC(N)=O)C(=O)N[C@@H](CCCCN)C(=O)N[C@@H](Cc2ccc(O)cc2)C(=O)N[C@@H](C(C)C)C(=O)N[C@@H](CC(C)C)C(=O)N[C@@H]([C@@H](C)O)C(=O)N[C@@H](Cc2ccc(O)cc2)C(=O)N[C@@H](CO)C(=O)N1)C(=O)N[C@@H](Cc1ccccc1)C(=O)N[C@@H](C)C(=O)N[C@@H](C)C(=O)NCC(N)=O` [L2] ({CH2CO}-YWHKNKYVLTYSCLFAAG-NH2; thioether N-13), the entries for the “Inhibition of infection (infected cells relative to untreated control)” value in data set [2], in data set [4] and in [7] were “fell short of inhibiting”, “strongly inhibited infection” and “strongly inhibited infection”, respectively. Moreover, in [3], the “Binding region in the HA stem (HDX-MS)” value was “aa 369–387”. Also, in data set [1], the Kd turned out to be 0.0024 µM. For the same molecule, the “Inhibition of infection at a single concentration” value in [5] is given as “strong inhibition of infection”. The results for the IC50 in [5] (16 h) and in data set [6] were 0.069 ± 0.0083 µM and 1.05 ± 0.3 µM, respectively. In addition, the CC50 at 72 h in data set [8] was above 5 µM. Besides, the ΔTm (°C), purified peptide in data set [9] is 1 °C. For the molecule `CC(C)[C@@H]1NC(=O)[C@H](Cc2c[nH]c3ccccc23)NC(=O)[C@H](CCCNC(=N)N)NC(=O)[C@H](Cc2ccc(O)cc2)NC(=O)CSC[C@@H](C(=O)NCCOCCOCC(=O)N[C@@H](CCn2nnc3c2-c2ccccc2CN(C(=O)CCCCCNC(=O)c2ccc4c(c2)C2(OC4=O)c4ccc(O)cc4Oc4cc(O)ccc42)c2ccccc2-3)C(=O)NCC(=O)N[C@@H](CC(=O)O)C(=O)N[C@@H](Cc2ccc(O)cc2)C(=O)N[C@@H](CCCCN)C(=O)N[C@@H](CC(=O)O)C(=O)N[C@@H](CC(=O)O)C(=O)N[C@@H](CC(=O)O)C(=O)N[C@@H](CC(=O)O)C(=O)N[C@@H](CCCCN)C(=O)NCC(N)=O)NC(=O)[C@H](C(C)C)NC(=O)[C@H](C(C)C)NC(=O)[C@H](Cc2ccccc2)NC(=O)[C@H](Cc2ccc(O)cc2)NC(=O)[C@@H]2CCCN2C(=O)[C@H](CCC(=O)O)NC(=O)[C@H](CO)NC(=O)[C@H](Cc2ccccc2)NC(=O)[C@H](Cc2ccccc2)NC(=O)[C@H](CO)NC(=O)[C@H]([C@@H](C)O)NC(=O)[C@H](Cc2c[nH]c3ccccc23)NC1=O` [L4FAM] ({CH2CO}-YRWVWTSFFSEPYFVVC[AEEA][X1]([Ahx-6FAM])GDYKDDDDKG-NH2; thioether N-17), in data set [1], the Hillslope is 0.96 and 0.76.

Consider `CC[C@H](C)[C@@H]1NC(=O)[C@H](CCCCN)NC(=O)[C@H](CO)NC(=O)[C@H](Cc2c[nH]c3ccccc23)NC(=O)[C@H](Cc2ccc(O)cc2)NC(=O)[C@H]([C@@H](C)CC)NC(=O)[C@H](CCCCN)NC(=O)[C@H](CC(C)C)NC(=O)[C@@H](Cc2ccc(O)cc2)NC(=O)CSC[C@@H](C(=O)NCCOCCOCC(=O)N[C@@H](CCn2nnc3c2-c2ccccc2CN(C(=O)CCCCCNC(=O)c2ccc4c(c2)C2(OC4=O)c4ccc(O)cc4Oc4cc(O)ccc42)c2ccccc2-3)C(=O)NCC(=O)N[C@@H](CC(=O)O)C(=O)N[C@@H](Cc2ccc(O)cc2)C(=O)N[C@@H](CCCCN)C(=O)N[C@@H](CC(=O)O)C(=O)N[C@@H](CC(=O)O)C(=O)N[C@@H](CC(=O)O)C(=O)N[C@@H](CC(=O)O)C(=O)N[C@@H](CCCCN)C(=O)NCC(N)=O)NC(=O)[C@H](Cc2c[nH]c3ccccc23)NC(=O)[C@H](CCC(=O)O)NC(=O)[C@H](CO)NC(=O)[C@H](C(C)C)NC(=O)[C@H](CC(C)C)NC(=O)CNC(=O)[C@H](Cc2c[nH]cn2)NC1=O` [S3FAM] ({CH2CO}-[dY]LKIYWSKIHGLVSEWC[AEEA][X1]([Ahx-6FAM])GDYKDDDDKG-NH2; thioether N-17), for which, in data set [1], the Hillslope was 1.02 and 0.94. `CC(C)C[C@@H]1NC(=O)[C@H](C(C)C)NC(=O)[C@@H](Cc2ccc(O)cc2)NC(=O)CSC[C@@H](C(=O)NCCOCCOCC(=O)N[C@@H](CCn2nnc3c2-c2ccccc2CN(C(=O)CCCCCNC(=O)c2ccc4c(c2)C2(OC4=O)c4ccc(O)cc4Oc4cc(O)ccc42)c2ccccc2-3)C(=O)NCC(=O)N[C@@H](CC(=O)O)C(=O)N[C@@H](Cc2ccc(O)cc2)C(=O)N[C@@H](CCCCN)C(=O)N[C@@H](CC(=O)O)C(=O)N[C@@H](CC(=O)O)C(=O)N[C@@H](CC(=O)O)C(=O)N[C@@H](CC(=O)O)C(=O)N[C@@H](CCCCN)C(=O)NCC(N)=O)NC(=O)[C@H](C(C)C)NC(=O)[C@H](Cc2c[nH]c3ccccc23)NC(=O)[C@H](Cc2c[nH]cn2)NC(=O)[C@H]([C@@H](C)O)NC(=O)[C@H](C)NC(=O)[C@H](CC(C)C)NC(=O)[C@H]([C@@H](C)O)NC(=O)CNC(=O)[C@H](Cc2c[nH]cn2)NC(=O)[C@H](CC(=O)O)NC(=O)[C@H](Cc2c[nH]c3ccccc23)NC(=O)[C@H](CCCNC(=N)N)NC(=O)[C@H](Cc2ccccc2)NC1=O` [S5FAM] ({CH2CO}-[dY]VLFRWDHGTLATHWVC[AEEA][X1]([Ahx-6FAM])GDYKDDDDKG-NH2; thioether N-17): the Hillslope in data set [1] is 0.97 and 0.86.

For the molecule “Cyclo(Ac-YITRFTPWPKLYPVWDC)G-NH2 (Ac-YITRFTPWPKLYPVWDCG-NH2; bridge N-17; also: cyclized, linkage type not given here) [L1]”, the “Inhibition of infection at a single concentration” value in [5] is “strong inhibition of infection”. Moreover, the ΔTm (°C), purified peptide in data set [9] worked out at 3.8 °C.

Cyclo(Ac-YRFLWSSFSSQPSWVHC)G-NH2 [B5]: the “ΔTm (°C), crude peptide” value in data set [9] came out at 1.4 °C.

Cyclo(Ac-YSNNRNWLPHDWQVLYC)G-NH2 [B6]: the “ΔTm (°C), crude peptide” value in data set [9] turned out to be 1.6 °C. Same read-out and setting: the figure for Cyclo(Ac-YSYFDVNTIFWFSPFC)CG-NH2 [S9] is 0.0 °C. In the case of Cyclo(Ac-YVQIFDRYGIYSGKWSC)G-NH2 [B8], the “ΔTm (°C), crude peptide” value in data set [9] worked out at 1.0 °C. Still for that read-out and setting: the figure for Cyclo(Ac-YYKALWINATFYQSLVC)G-NH2 [R5] is 1.2 °C; for Cyclo(Ac-YYSWFEATGRFRAIFSC)G-NH2 [R4] it is 1.4 °C.

With Cyclo(Ac-yAFWIRWTNHYRSGFTC)G-NH2 [B4], the “Inhibition of infection at a single concentration” value in [5] is recorded as “strong inhibition of infection”. The “ΔTm (°C), crude peptide” value in data set [9] worked out at 2.0 °C. Cyclo(Ac-yFLC)TKWNYGRWYLFYCG-NH2 [R1]: the “ΔTm (°C), crude peptide” value in [9] amounted to 1.4 °C.

Regarding Cyclo(Ac-yFVNWYWHGEKLFYRYC)G-NH2 [R2], the “ΔTm (°C), crude peptide” value in data set [9] amounted to 2.2 °C. For Cyclo(Ac-yIRLFWINGNLVSEWNC)G-NH2 [S2], the “Binding region in the HA stem (HDX-MS)” value in [3] was “aa 369–387”. For the same molecule, in data set [5], the “Inhibition of infection at a single concentration” value is “strong inhibition of infection”. Besides, the “ΔTm (°C), crude peptide” value in [9] amounted to 4.4 °C. Turning to Cyclo(Ac-yIVLAWKGHYLESRWTC)G-NH2 [S8], in [9], the “ΔTm (°C), crude peptide” value was 1.6 °C. Same read-out and setting: the figure for Cyclo(Ac-yLIWPSFNQNAKIIFPC)G-NH2 [B9] is 3.6 °C; for Cyclo(Ac-yRQWFYLGKYYC)TWSCCG-NH2 [S4] it is 0.0 °C; for Cyclo(Ac-yRVFNISWDGEYRSWWC)G-NH2 [B3] it is 0.4 °C. In the case of Cyclo(Ac-ySYFIWANFQTEPYFVC)G-NH2 [B2], the “Binding region in the HA stem (HDX-MS)” value in data set [3] was “aa 369–387”. In addition, the “Inhibition of infection at a single concentration” value in data set [5] is reported as “strong inhibition of infection”. Moreover, the “ΔTm (°C), crude peptide” value in data set [9] worked out at 0.6 °C. In the same order, the values of Cyclo(Ac-yTYYVLLQRWPPVWAPC)G-NH2 [B1] are “aa 369–387”, “strong inhibition of infection” and 2.0 °C. Regarding Cyclo(Ac-yVIAIRPFSQLCWRWVC)G-NH2 [S7], the “ΔTm (°C), crude peptide” value in [9] is 0.4 °C. Regarding Cyclo(Ac-yVKIVWFEGTLNTTWFC)G-NH2 [S6], the “ΔTm (°C), crude peptide” value in data set [9] came to 1.6 °C.
